This passage reports EC50 results from patent publication US20140221378A1, “SUBSTITUTED SPIROPYRIDO[1,2-a]PYRAZINE DERIVATIVE AND PHARMACEUTICAL USE OF SAME AS HIV INTEGRASE INHIBITOR” (priority 2012, published 2014).

Where a name gives a salt, the structure may show the parent alone. Read-outs that look alike come from different tables or passages of the source.

This experiment relates to HIV-1 NL4-3 strain. In words: Antiviral activity in acute infection system of MT-4 cell with HIV-1 NL4-3 strain (Cell Titer-Glo). Type of experiment: cell-based.
The mark [1] stands for this setting: antiviral activity, MT-4 cells infected with HIV-1 NL4-3 strain, MOI 0.05, 5 days culture, Cell Titer-Glo luminescence, read-out: EC50.

On to `CO[C@H]1C[C@]2(CN(C)C(=O)c3c(O)c(=O)c(C(=O)NCc4cccc(Cl)c4F)cn32)C1` [Example 1, N-(3-chloro-2-fluorobenzyl)-9′-hydroxy-cis-3-methoxy-2′-methyl-1′,8′-dioxo-1′,2′,3′,8′-tetrahydrospiro[cyclobutane-1,4′-pyrido[1,2-a]pyrazine]-7′-carboxamide hydrochloride], for which the EC50 (Human immunodeficiency virus 1, NL43, MT4, 120 h, antiviral activity, MT-4 cells infected with HIV-1 NL4-3 strain, MOI 0.05, 5 days culture, Cell Titer-Glo luminescence) worked out at 3.1 nM. Take `CO[C@H]1C[C@]2(Cn3cc(C(=O)NCc4cccc(Cl)c4F)c(=O)c(O)c3C(=O)N2C)C1` [Example S63, N-(3-chloro-2-fluorobenzyl)-9′-hydroxy-cis-3-methoxy-2′-methyl-1′,8′-dioxo-1′,2′,4′,8′-tetrahydrospiro[cyclobutane-1,3′-pyrido[1,2-a]pyrazine]-7′-carboxamide hydrochloride]: the EC50 (Human immunodeficiency virus 1, NL43, MT4, 120 h, antiviral activity, MT-4 cells infected with HIV-1 NL4-3 strain, MOI 0.05, 5 days culture, Cell Titer-Glo luminescence, read-out: EC50) was determined as 4 nM. For the molecule `CCN1C[C@@]2(C[C@@H]2COC)n2cc(C(=O)NCc3cccc(C(F)(F)F)c3F)c(=O)c(O)c2C1=O` [Example T27, (1S, 2S)-2′-ethyl-N-(2-fluoro-3-(trifluoromethyl)benzyl)-9′-hydroxy-2-(methoxymethyl)-1′,8′-dioxo-1′,2′,3′,8′-tetrahydrospiro[cyclopropane-1,4′-pyrido[1,2-a]pyrazine]-7′-carboxamide], the EC50 (Human immunodeficiency virus 1, NL43, MT4, antiviral activity, MT-4 cells acutely infected with HIV-1 NL4-3 strain (wild type), Cell Titer-Glo, read-out: EC50) stood at 97 nM. Turning to “N-(3-chloro-2-fluorobenzyl)- 2′-ethyl-9′-hydroxy-trans-3- (hydroxymethyl)-1′,8′-dioxo- 1′,2′,4′,8′- tetrahydrospiro[cyclobutane- 1,3′-pyrido[1,2-a]pyrazine]- 7′-carboxamide hydrochloride [Example S58]”, the EC50 under setting [1] is 6.8 nM.

Take “cis-3-(benzyloxy)-N-(2,4- difluorobenzyl)-9′-hydroxy- 2′-isopropyl-1′,8′-dioxo- 1′,2′,3′,8′- tetrahydrospiro[cyclobutane- 1,4′-pyrido[1,2-a]pyrazine]- 7′-carboxamide hydrochloride [Example S2]”: the EC50 under setting [1] stood at 10 nM.
